Laboratory results: patent US7297551B2, “Recombinant proteins and peptides for endotoxin biosensors, endotoxin removal, and anti-microbial and anti-endotoxin therapeutics” (priority 1998, dated 2007)

Columns and labels:
[1] = molecular target: T1, SSCrFCES (LPS-binding domain of C. rotundicauda Factor C, rFCES amino acids 29-330, numbered as in SEQ ID NO: 4) (Carcinoscorpius rotundicauda, UniProt Q26422); details: rFCES produced in Drosophila cells, 8 ng/μl; reference 77; cited from earlier work
T1 construct: rFCES (amino acids 29-330); made in house; host or cells: Drosophila S2 cells
T1 sequence (Q26422 29-330): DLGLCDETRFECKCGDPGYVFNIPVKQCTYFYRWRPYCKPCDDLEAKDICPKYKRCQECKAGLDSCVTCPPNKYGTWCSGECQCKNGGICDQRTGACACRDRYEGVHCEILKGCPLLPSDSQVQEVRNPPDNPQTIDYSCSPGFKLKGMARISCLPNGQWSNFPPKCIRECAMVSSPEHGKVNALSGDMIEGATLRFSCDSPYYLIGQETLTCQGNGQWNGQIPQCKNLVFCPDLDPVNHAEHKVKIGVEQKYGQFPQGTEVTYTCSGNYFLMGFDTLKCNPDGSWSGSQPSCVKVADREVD

[2] = molecular target: T2, rFCEE (truncated C. rotundicauda Factor C, CrFC21EE, amino acids 1-766, from P. pastoris) (Carcinoscorpius rotundicauda, UniProt Q26422); assay: BIACORE X binding to immobilized lipid A; details: Biomax-50 enriched, normalized with rFCSN
T2 construct: Pichia pastoris, Biomax-50 enriched
T2 sequence (Q26422 1-766): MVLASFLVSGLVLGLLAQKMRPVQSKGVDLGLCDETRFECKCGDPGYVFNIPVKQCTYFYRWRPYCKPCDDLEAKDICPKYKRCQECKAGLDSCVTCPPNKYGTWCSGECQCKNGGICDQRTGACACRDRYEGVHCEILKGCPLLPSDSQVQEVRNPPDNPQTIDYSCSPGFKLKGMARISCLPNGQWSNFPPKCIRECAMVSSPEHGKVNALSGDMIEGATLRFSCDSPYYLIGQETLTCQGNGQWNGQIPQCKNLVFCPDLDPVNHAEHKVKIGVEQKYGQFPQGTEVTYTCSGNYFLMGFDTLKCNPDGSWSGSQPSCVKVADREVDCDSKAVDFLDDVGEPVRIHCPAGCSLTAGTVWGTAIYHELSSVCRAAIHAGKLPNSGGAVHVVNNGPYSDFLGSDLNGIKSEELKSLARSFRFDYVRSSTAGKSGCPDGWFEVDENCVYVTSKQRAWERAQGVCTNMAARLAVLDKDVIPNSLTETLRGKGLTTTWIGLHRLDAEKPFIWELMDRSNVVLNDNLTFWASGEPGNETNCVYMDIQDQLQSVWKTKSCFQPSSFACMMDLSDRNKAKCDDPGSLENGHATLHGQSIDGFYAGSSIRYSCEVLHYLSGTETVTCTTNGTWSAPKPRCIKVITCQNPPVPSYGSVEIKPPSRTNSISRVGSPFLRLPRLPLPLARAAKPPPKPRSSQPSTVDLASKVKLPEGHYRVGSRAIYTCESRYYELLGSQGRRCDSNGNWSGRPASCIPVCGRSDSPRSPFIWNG
Protocol: The binding interactions between rFC and immobilized lipid A were monitored using the BIACORE X™ biosensor (Pharmacia Biotech). The BIACORE X™ sensor chip features a flat hydrophobic surface that allows the immobilization of ligand molecules. Thirty microliters of lipid A at 100 μg/ml were immobilized on each sensor chip to form a ligand surface. Biomax™-50 enriched samples of rFC, rFCEE and rFCSN, each at 1 mg/ml were injected at 10 μl/min for 3 min over the ligand surface. After each injection of the recombinant protein samples, the lipid A ligand surface was regenerated using 0.1 M NaOH. The ligand-binding was measured in relative response units (RU) for each sample, and calculated from the difference in RU at the baseline, viz., before injection of sample, and final experimental reading taken after sample injection and a 2-min wash. The percentage binding was thus determined.

[3] = molecular target: T3, rFCSN (truncated C. rotundicauda Factor C, CrFC26SN, lacking the LPS-binding domain, from P. pastoris) (Carcinoscorpius rotundicauda, UniProt Q26423); assay: Modified Western blot of LPS/lipid A
T3 construct: Pichia pastoris
T3 sequence (Q26423 1-1083): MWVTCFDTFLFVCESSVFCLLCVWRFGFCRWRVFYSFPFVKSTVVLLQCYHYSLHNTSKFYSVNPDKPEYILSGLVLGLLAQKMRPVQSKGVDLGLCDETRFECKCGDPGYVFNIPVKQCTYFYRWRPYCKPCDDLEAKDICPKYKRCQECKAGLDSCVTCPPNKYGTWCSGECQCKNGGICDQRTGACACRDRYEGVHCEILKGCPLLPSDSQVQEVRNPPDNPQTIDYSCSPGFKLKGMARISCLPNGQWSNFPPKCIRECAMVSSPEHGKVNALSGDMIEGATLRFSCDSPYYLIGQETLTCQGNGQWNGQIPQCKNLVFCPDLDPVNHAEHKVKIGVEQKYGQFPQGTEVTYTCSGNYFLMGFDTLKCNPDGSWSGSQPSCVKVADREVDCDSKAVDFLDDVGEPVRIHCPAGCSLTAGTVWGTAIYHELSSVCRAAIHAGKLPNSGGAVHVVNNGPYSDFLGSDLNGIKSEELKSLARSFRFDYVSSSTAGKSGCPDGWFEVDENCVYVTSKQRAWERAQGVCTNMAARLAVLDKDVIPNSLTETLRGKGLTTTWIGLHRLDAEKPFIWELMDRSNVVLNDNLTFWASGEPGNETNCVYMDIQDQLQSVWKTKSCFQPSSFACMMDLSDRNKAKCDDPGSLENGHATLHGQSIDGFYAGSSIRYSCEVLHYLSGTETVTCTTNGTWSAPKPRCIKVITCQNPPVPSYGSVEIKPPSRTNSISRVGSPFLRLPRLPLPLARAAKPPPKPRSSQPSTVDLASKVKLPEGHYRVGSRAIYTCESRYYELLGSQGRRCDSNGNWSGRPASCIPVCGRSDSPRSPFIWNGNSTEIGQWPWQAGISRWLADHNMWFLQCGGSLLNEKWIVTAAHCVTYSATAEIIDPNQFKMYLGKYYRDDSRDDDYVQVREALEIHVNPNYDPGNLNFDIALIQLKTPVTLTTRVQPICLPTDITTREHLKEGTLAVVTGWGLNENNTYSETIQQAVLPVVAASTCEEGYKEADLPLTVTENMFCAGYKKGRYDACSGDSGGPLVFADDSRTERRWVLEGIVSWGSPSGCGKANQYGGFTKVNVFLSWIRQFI
Protocol: LPS from E. coli 055:B5 (Sigma) was reconstituted to 2 μg/μl, and diphosphoryl lipid A from E. coli K12, D31m4 LPS (List Biologicals, Inc., USA) was made up to 1 μg/μl. The LPS-binding assay was based on modifications of earlier described protocols (45,61). Briefly, 10 μg aliquots of LPS/lipid A were electrophoresed on a denaturing 15% SDS-polyacrylamide gel and electroblotted onto Immobilon™ PVDF membrane. The membrane was cut into strips and each LPS/lipid A strip was subsequently incubated with 300 μg of proteins containing rFC. Detection of rFC binding to lipid A was accomplished by incubation with anti-Factor C antibody followed by alkaline phosphatase-conjugated secondary goat anti-rabbit antibody (Dako) and BCIP/NBT colorimetric substrate (Moss, Inc., USA).

Q: With lipid A as the substance, how does the “saturation of immobilized lipid A” value [1] read?
A: 92%

Q: And the “net response, lipid A bound” value [2]?
A: 15%

Q: What about the “binding to the 7-20 kDa lipid A bands” value [3] of the same substance?
A: No binding
